Data on one molecule can be found in patent EP2628734A2, “5-AMINO-1,2,4-THIADIAZOLE DERIVATIVES” (Federalnoe Gosudarstvennoe Bydzhetnoe Uchrezhdenie Nauki …, priority 2010, dated 2012).

The subject of this assay is P2 synaptosomal fraction from rat brain cortex. The assay is described as follows: glutamate-induced uptake of 45Ca2+ isotope into synaptosomes. It counts as cell-based. From the text:
Neuroprotective action of new compounds was studied in P2 synaptosomal fraction from rat brain cortex. 5-amino-3-(2-nitroxypropyl)-1,2,4-thiadiazole derivatives were studied in the test on glutamate-induced uptake of ^45Ca^2+ isotope into synaptosomes.

The structures appear in SMILES notation.

For the molecule `CC(Cc1nsc(N2CCN(c3ccccn3)CC2)n1)O[N+](=O)[O-]` (centres unmarked) [1-[3-(2-Nitroxypropyl)-[1,2,4]-thiadiazol-5-yl]-4-pyridin-2-yl-piperazine], half-maximal inhibition (glutamate-induced uptake of ^45Ca^2+ into synaptosomes) (IC50) required 16.6 µM. The inhibition at 100 µM (glutamate-induced uptake, concentration of 100 µM, read-out: inhibition of the uptake of ^45Ca^2+ into synaptosomes vs. a control) is 98%.

The term IC50 denotes the concentration at which inhibition is half-maximal. Read a high IC50 as a need for much substance. What is called inhibition is the percentage by which the read-out fell short of the control.
